Measured values reported in ChEMBL document CHEMBL6092147, “Design of inhibitors of SARS-CoV-2 papain-like protease deriving from GRL0617: Structure-activity relationships” (Bioorg Med Chem, 2024).

Key:
[1] = target: T1, Replicase polyprotein 1ab (Severe acute respiratory syndrome coronavirus 2, UniProt P0DTD1); test: Inhibition of SARS-CoV-2 wild type PLpro extracted from Escherichia coli Rosetta 2(DE3) cells by fluorescence based analysis
[2] = target: T1, Replicase polyprotein 1ab; test: Inhibition of SARS-CoV-2 PLpro using Ubiquitin-AMC as substrate by enzymatic assay
[3] = target: T1, Replicase polyprotein 1ab; test: Binding affinity to SARS-CoV-2 Main protease assessed as inhibition constant by SPR analysis
[4] = target: T1, Replicase polyprotein 1ab; test: Inhibition of SARS-CoV-2 papain-like protease (PLpro) by enzymatic assay
[5] = target: T1, Replicase polyprotein 1ab; test: Inhibition of SARS-CoV-2 papain-like protease (PLpro) by FRET analysis
[6] = target: T1, Replicase polyprotein 1ab; test: Inhibition of C-terminal His-tagged SARS-CoV-2 papain-like protease (PLpro) (1564 to 1876 residues) extracted from Escherichia coli BL21 (DE3) cells using Dabcyl-KTSAVLQ/SGFRKME as substrate incubated for 60 mins by FRET assay
[7] = target: T1, Replicase polyprotein 1ab; test: Inhibition of SARS-CoV-2 wild type PLpro (1563 to 1878 residues) extracted from Escherichia coli Rosetta 2 (DE3) cells by Fluorescence polarization assay
[8] = target: T1, Replicase polyprotein 1ab; test: Inhibition of N-terminal 6-His-tagged SARS-CoV-2 PLpro BetaCoV/Wuhan/WIV04/2019 (1524 to 1883 residues) extracted from Escherichia coli BL21 (DE3) cells using Dabcyl-KTSAVLQ/SGFRKME as substrate pretreated for 30 mins followed by substrate addition measured for 1 hr by TR-FRET analysis
[9] = target: T1, Replicase polyprotein 1ab; test: Inhibition of His-tagged SARS-CoV-2 papain-like protease (PLpro) incubated for 30 mins by FRET assay
[10] = target: T1, Replicase polyprotein 1ab; test: Inhibition of N-terminal 6His-tagged SARS-CoV-2 wild type PLpro extracted from Escherichia coli BL21 (DE3) cells incubated for 60 mins by FRET assay
[11] = target: T1, Replicase polyprotein 1ab; test: Inhibition of SARS-CoV-2 3CL protease extracted from Escherichia coli BL21 (DE3) Rosetta cells using DabcylKNSTLQSGLRKE-Edan as substrate preincubated for 60 mins followed by substrate addition and measured after 20 mins by FRET assay
[12] = target: T1, Replicase polyprotein 1ab; test: Binding affinity to SARS-CoV-2 3CL protease assessed as dissociation constant by SPR analysis
[13] = target: T1, Replicase polyprotein 1ab; test: Inhibition of SARS-CoV-2 3CL protease by FRET assay
[14] = target: T1, Replicase polyprotein 1ab; test: Binding affinity to SARS-CoV-2 3CL protease extracted from Escherichia coli BL21 (DE3) Rosetta cells assessed as dissociation constant

Compound `C[C@H](c1cccc2ccccc12)N1CCC(C(=O)NCc2cc(F)cc(NC(=O)N3CCN(C)CC3)c2)CC1` has an IC50 [1] of 0.99 µM.
Compound `Cc1ccc(N)cc1CN[C@H](C)c1cccc2ccccc12` has an IC50 [2] of 41.1 µM.
In the case of `CCn1ccc(-c2cc(-c3cnn(CCOC)c3)cc([C@@H](C)NC(=O)c3cc(OCCN(C)C)ccc3C)c2)n1`, the Ki [3] is reported as 0.03 µM and the IC50 [4] is reported as 0.16 µM.
In the case of `CC(=O)Nc1ccc(C)c(C(=O)NC(C)c2cccc3ccccc23)c1` (stereo not drawn), the IC50 [2] is reported as 11 µM.
`Cc1ccc(OCCN(C)C)cc1C(=O)N[C@H](C)c1cc(-c2cnn(C)c2)cc(-c2cnn(C)c2)c1` was tested, and the Ki [3] was 0.03 µM.
`Cc1ccc(OCCN(C)C)cc1C(=O)N[C@H](C)c1cc(-c2cccs2)cc(-c2cccs2)c1` showed an IC50 [5] of 0.06 µM and a Ki [3] of 0.01 µM.
`C[C@H](c1cccc2ccccc12)N(C)Cc1ccc2cccc(O)c2n1` showed an IC50 [6] greater than 20 µM.
With `COc1cc(CNC(=O)C2CC3(C2)CN([C@H](C)c2cccc4ccccc24)C3)ccn1` the IC50 [7] was 5.4 µM.
In the case of `C[C@H](c1cccc2ccccc12)N1CCC(C(=O)NCc2ccc(S(N)(=O)=O)cc2)CC1`, the IC50 [8] is reported as 0.6 µM.
In the case of `C[C@H](c1cccc2ccccc12)N(C)Cc1ccc(OCC(N)=O)cc1`, the IC50 [9] is reported as 2.84 µM.
For `COc1cc(CNC(=O)C2CCN(C(C)c3cccc4ccccc34)CC2)ccn1` (racemic), the IC50 [7] was 1.1 µM.
With `CCOc1ccc2ccccc2c1C(C)N1CCC(C(=O)NCc2ccnc(OC)c2)CC1` (racemic) the IC50 [10] was greater than 98 µM.
Compound `COc1cc(CNC(=O)C2CN(C(C)c3cccc4ccccc34)C2)ccn1` (racemic) has an IC50 [7] of 27.3 µM.
For `CCC(C(=O)Nc1cc(NC2CCOCC2)ccc1C)n1cccc2nc(SCc3ccc(F)cc3)nc1-2` (racemic), the IC50 [11] was 0.6 µM.
Work on `CCC(C(=O)Nc1cc(NC2CCNCC2)ccc1C)n1cc(Br)cc2nc(SCc3ccc(F)cc3)nc1-2` (racemic) yielded a Kd [12] of 0.17 µM and an IC50 [13] of 0.05 µM.
Work on `CCC(C(=O)Nc1cc(NC2CCNC2)ccc1C)n1cccc2nc(SCc3ccc(F)cc3)nc1-2` (racemic) yielded a Kd [12] of 0.25 µM.
Work on `CCC(C(=O)Nc1cc(NC2CNC2)ccc1C)n1cc(Cl)cc2nc(SCc3ccc(F)cc3)nc1-2` (racemic) yielded a Kd [12] of 0.1 µM and an IC50 [13] of 0.09 µM.
In the case of `CCC(C(=O)Nc1cc(NC2CCOC2)ccc1C)n1cc(F)cc2nc(SCc3ccc(F)cc3)nc1-2` (racemic), the IC50 [11] is reported as 1.86 µM.
`CCC(C(=O)Nc1cc(NC2CCNC2)ccc1C)n1cc(Cl)cc2nc(SCc3ccc(F)cc3)nc1-2` (racemic) showed a Kd [12] of 0.1 µM and an IC50 [13] of 0.07 µM.
`CCC(C(=O)Nc1cc(NC2CNC2)ccc1C)n1cc(Br)cc2nc(SCc3ccc(F)cc3)nc1-2` (racemic) showed a Kd [12] of 0.1 µM and an IC50 [13] of 0.07 µM.
Compound `COc1cc(CNC(=O)C2CCN(C(C)c3c(OC)ccc4ccccc34)CC2)ccn1` (racemic) has an IC50 [10] greater than 98 µM.
Work on `CCC(C(=O)Nc1cc(NC2COC2)ccc1C)n1cc(F)cc2nc(SCc3ccc(F)cc3)nc1-2` (racemic) yielded an IC50 [11] of 0.4 µM and a Kd [14] of 0.4 µM.
For `COc1cc(CNC(=O)C2CCN(C(C)c3c(C)sc4ccccc34)CC2)ccn1` (racemic), the IC50 [10] was greater than 98 µM.
With `CCC(C(=O)Nc1cc(NC2CCOC2)ccc1C)n1cc(Cl)cc2nc(SCc3ccc(F)cc3)nc1-2` (racemic) the IC50 [11] was 0.16 µM.
With `CCC(C(=O)Nc1cc(NC2CCOCC2)ccc1C)n1cc(F)cc2nc(SCc3ccc(F)cc3)nc1-2` (racemic) the IC50 [11] was 1.4 µM.
Work on `CCC(C(=O)Nc1cc(NC2COC2)ccc1C)n1cccc2nc(SCc3ccc(F)cc3)nc1-2` (racemic) yielded an IC50 [11] of 0.3 µM.
`CCC(C(=O)Nc1cc(NC2CNC2)ccc1C)n1cc(F)cc2nc(SCc3ccc(F)cc3)nc1-2` (racemic) showed a Kd [12] of 0.27 µM and an IC50 [13] of 0.2 µM.
Compound `CCC(C(=O)Nc1ccccc1C)n1cc(F)cc2nc(SCc3ccc(F)cc3)nc1-2` (racemic) has an IC50 [11] of 5.09 µM.
In the case of `CCC(C(=O)Nc1cc(NC2CCOC2)ccc1C)n1cc(Br)cc2nc(SCc3ccc(F)cc3)nc1-2` (racemic), the IC50 [11] is reported as 0.5 µM and the Kd [14] is reported as 1.4 µM.
